Experimental data taken from EP0323865A1, “Novel immunosuppressant agent” (Merck & Co., Inc., priority 1988, dated 1989).

What was measured:
mouse T lymphocytes = test: T-cell proliferation assay (ionomycin plus PMA induced T-cell stimulation, tritiated thymidine uptake); type: cell-based, C57Bl/6 mice; settings: result in words
Experimental: The principle of this assay is to measure the proliferation of mouse T lymphocytes stimulated with the combination of ionomycin plus PMA. A positive sample in this assay will inhibit T-cell proliferation, as indicated by reduced tritiated thymidine uptake.
An equal volume of methanol was added to a 1 ml sample of each of the above broths producing a 1:2 whole broth equivalent (WBE). The samples were centrifuged at 3,000 rpm for 5 minutes and the resulting supernatants were used as starting materials for the T-cell proliferation assay. […]
Purified T lymphocytes were resuspended at 10⁶ cells/ml in complete culture medium composed of RPMI 1640 medium with 10% heat-inactivated fetal calf serum, […], 1 mM sodium pyruvate, 2 x 10⁻⁵ M 2-mercaptoethanol and 50 µg/ml gentamycin. […] The proliferation of T lymphocytes was assessed by measurement of tritiated thymidine incorporation. […] Radioactivity of filter discs corresponding to individual wells was measured by standard liquid scintillation counting methods (Betacounter). Mean counts per minute of replicate wells were calculated and the results expressed as percent inhibition of tritiated thymidine uptake (proliferation) as follows: [formula]

[1] = Physical characteristics: solubility; type: physicochemical; settings: methanol
Source text: White amorphous powder • 2. […] Molecular weight determined by mass spectroscopy of 791.4784, consistent with an empirical formula of C₄₃H₆₉NO₁₂

| Solubility [1] | SMILES | immunosuppressive activity (mouse T lymphocytes; for ascomycin no test is named) | inhibition of T-cell activation (mouse T lymphocytes) |
| --- | --- | --- | --- |
| – | CC[C@@H]1/C=C(\C)C[C@H](C)C[C@H](OC)[C@H]2O[C@@](O)(C(=O)C(=O)N3CCCC[C@H]3C(=O)O[C@H](/C(C)=C/[C@@H]3CC[C@@H](O)[C@H](OC)C3)[C@H](C)[C@@H](O)CC1=O)[C@H](C)C[C@@H]2OC [ascomycin, reference compound] | exhibits immunosuppressive activity | – |
| Solubility in methanol | CC[C@@H]1/C=C(\C)C[C@H](C)C[C@H](OC)[C@H]2O[C@@](O)(C(=O)C(=O)N3CCCC[C@H]3C(=O)O[C@H](/C(C)=C/[C@@H]3CC[C@@H](O)[C@H](OC)C3)[C@H](C)[C@@H](O)CC1=O)[C@H](C)C[C@@H]2OC [immunomycin] | – | positive inhibition of T-cell activation |
